Measured values from patent US10485845B2, “Neuronal pain pathway” (THE TRUSTEES OF COLUMBIA UNIVERSITY IN THE CITY OF NEW YORK, priority 2005, dated 2019).
Entries after “also recorded” stand apart in the source; their conditions may differ.

Key:
PKG [1] = conditions: see Setyawan et al., 1999; read-out: inhibitory of PKG at concentration of; cited from earlier work
apPKG = test: In vitro kinase assay of recombinant apPKG (32P transfer from ATP to BPDEtide); assay type: biochemical, Aplysia; conditions: 100 nM 8-Br-cGMP, BPDEtide substrate
Description: FIG. 2A-C. apPKG is a type-1 PKG. […] Activity caused by autophosphorylation was subtracted using a peptide control reaction (see Materials and Methods). Note that the kinase activity was inhibited in the presence of 10 μM PKG inhibitor Rp-8-pCPT-cGMPS (RP-G). B, Kinase activity of active recombinant apPKG (25 ng) and bovine PKG type-Iα (bPKG Iα (50 ng) in the presence of four type-I PKG peptide substrates: peptide A, RKISASGP (SEQ ID NO:21); B, RKISASEFDRPLR (SEQ ID NO:22; BPDEtide); and D, RKRSRAE (SEQ ID NO:23) H2Btide). Peptide C, QKRPRRKDTP (SEQ ID NO:24), is a type-II PKG substrate. C, apPKG phosphorylates recombinant VASP at serine-239. Purified recombinant VASP-GST (0.5 μg) was incubated with active apPKG (100 ng) or the recombinant bovine PKG (50 ng), or in the kinase buffer alone, at room temperature for 20 min. After SDS-PAGE, a Western blot was probed with an anti-phospho-VASP (Ser 239) (p-VASP 5239) antibody.
These studies establish apPKG as a member of the soluble type-I family of PKGs.

Aplysia SNs [2] = test: Induction of LTH in axotomized SNs in vitro (electrophysiology); assay type: cell-based, Aplysia californica; conditions: for decrease in spike threshold / increase in repetitive firing: 10 μM, SNs grown in presence of inhibitor, third day in vitro
Description: FIG. 6A-D. Inhibiting NOS, sGC, or apPKG prevents the induction of LTH in SNs in vitro. SNs were removed from the cluster and grown in vitro in the presence of Rp-8-pCPT-cGMPS (RpcGMPS), Rp-8-pCPT-cAMPS (RpcAMPS), or ODQ (all 10 μM). Other SNs removed at the same time were not exposed to any inhibitors as controls (C). A, B, On the third day in vitro, 12 SNs exposed to Rp-cGMPS, Rp-cAMPS, or ODQ, and 12 control SNs were impaled with a microelectrode to assess repetitive firing in response to stimulation at three test currents (A) and to determine spike threshold (B). We examined the cells on the third day, and not later, to avoid more prolonged exposure to the drugs. […] Error bars indicate SEM, and the asterisks indicate significance (p<0.0001 in each case). […] C, Detection of nNOS mRNA in single SNs by RT-PCR. Fragments of appropriate lengths were amplified with primer sets for apnNOS, sensorin A, and the neuron-specific isoform of actin from five separate sets of samples from SNs in vivo (0) or after 16 hr in vitro. The size of the synthesized fragments detected by ethidium bromide staining on 2% agarose gels were identical with those predicted from the known sequences in the database. In addition, the PCR products were verified by DNA sequence analysis. Finally, there was no amplification in the absence of reverse transcriptase, indicating the RNA preparations were not contaminated by genomic DNA (bottom panel). Positions of molecular markers are indicated on the left. D, Effects of the NOS inhibitors on LTH. L-Thiocitrulline (50 μM) and L-NAME (1 mM) were used as described above. n, Number of SNs. The data were normalized to the average excitability of control cells in the same preparation. The asterisk indicates significance (p<0.001), comparing LTH with and without inhibitor by ANOVA and Dunnett's test. Error bars indicate SEM.
Medium was changed every 2 d. Drugs were washed out 1 hr before electrophysiological tests.
Before the start of each recording, the hemolymph was replaced with a 1:1 mixture of artificial seawater and culture medium (without hemolymph; pH 7.6). Standard techniques were used for intracellular stimulation and recording (Ambron et al., 1996). The soma spike threshold was measured with a standard series of 20 msec depolarizing pulses. Repetitive firing was quantified by counting the number of spikes evoked by a series of 2 sec depolarizing pulses at 1, 2, 3, 4, and 5 nA, or 1 sec depolarizing pulses at 2.5 times the current for the 20 msec threshold. Spike amplitude was measured from baseline to the peak of the action potential, and spike duration was the breadth of the action potential at one-half of its maximal height.
To investigate whether the appearance of the LTH requires apPKG activity, the SNs were removed from the ganglion in the presence of either the soluble guanylyl cyclase (sGC) inhibitor ODQ, the PKG inhibitor Rp-8-pCPT-cGMPS, or the PKA inhibitor Rp-cAMPS. The latter was used because PKA has properties in common with PKG (Scott, 1991; Francis and Corbin, 1994) and has been implicated in various forms of synaptic plasticity in Aplysia SNs (Ghirardi et al., 1992; Byrne and Kandel, 1996; Bedi et al., 1998; Muller and Carew, 1998; Chain et al., 1999; Liao et al., 1999; Sutton and Carew, 2000; Antonov et al., 2003). The cells were subsequently allowed to regenerate in the presence of the inhibitors in vitro, and on the third day, their electrophysiological properties were compared with those of SNs that were removed from the same ganglia at the same time, but that had not been exposed to a drug. […] Neither spike broadening nor amplitude were evaluated in these experiments.

apMAPK [3] = test: Axotomy-induced apMAPK nuclear translocation in SNs (D8 antibody immunostaining, confocal microscopy); assay type: cell-based, Aplysia; conditions: 10 μM, SNs in vitro; for nuclear staining of apMAPK: fixed on the third day
Description: Equal amounts of Alexa Fluor 546-labeled BSA, apPKG, or ERK1 were microinjected into the cytoplasm of SNs after 2 d in vitro. The neurites were then severed with a fine needle to elicit an injury response, and 30 min later, the cells were examined by confocal microscopy. […] Scale bar, 20 μm. B, Rp-8-pCPT-cGMPs inhibits axotomy-induced apMAPK nuclear translocation. SNs untreated as controls, and those exposed to either 10 μM Rp-8-pCPT-cGMPs (Rp-cGMPs) or Rp-cAMPs for 2 d in vitro, were immunostained with D8 antibody to localize apMAPK. Top, Representative examples of 2 μm optical sections of control SNs and those exposed to Rp-8-pCPT-cGMPs or Rp-cAMPs. Scale bar, 20 μm. Bottom, Histogram of the mean value of nuclear MAPK immunoreactivity. The staining intensity was determined by a person who was blind to the treatment that the cells received. n, Number of cells for each treatment. Asterisk indicates significant difference from control (p<0.05 by ANOVA and Newman-Keuls tests).
Ganglia, nerve, or cultured cells were fixed with 4% paraformaldehyde in PBS, pH 7.4. The primary antibody was diluted in TBS supplemented with 0.1-0.5% Triton X-100 in TBS and 5% goat serum, and incubated overnight at 4° C. After several washes, an Alexa Fluor 594- or 488-conjugated secondary antibody (Molecular Probes, Eugene, Oreg.) was applied for 1 hr at room temperature. Subsequently, the cells were visualized by confocal fluorescence microscopy (LSM510 confocalmicroscope; Zeiss, Oberkochen, Germany), and images were collected.
The inability of apPKG to enter the nucleus of Aplysia SNs is consistent with the idea that it contributes to the induction of LTH by promoting the nuclear import of apMAPK. If so, then inhibiting the apPKG pathway should block the axotomy-induced entry of apMAPK into the nucleus. Therefore, SNs were exposed in vitro either to the PKG blocker, Rp-8-pCPTcGMPS, or the PKA blocker, Rp-cAMPS, under the conditions that induce LTH (FIG. 6A). On the third day, the cells were fixed, permeabilized, and exposed to antibody D8 to visualize ap-MAPK. […]

PKG [4] = test: Blocking of PKG activity at the site of sciatic nerve injury in rat; assay type: in vivo; conditions: nerve injured in presence of inhibitor; four hours after injury
Description: FIG. 9. Relative PKG activity at various positions of the sciatic nerve relative to point of injury, shown schematically above the graph.
The experiment was carried out as follows. A rat was anesthetized using a standard protocol and the sciatic nerve was exposed and injured in either the absence or the presence of RP-G, or an inhibitor of PKA, Rp-8-pCPT-cAMPS, (“RP-A”). Four hours later, the nerve was sectioned as shown in the schematic above the graph in FIG. 9, and each segment was assayed for PKG activity. In the absence of inhibitor (black bars), active PKG had been transported toward the cell bodies and was enriched in P3.

Aplysia SNs [5] = test: Induction of LTH in axotomized SNs in vitro (electrophysiology); assay type: cell-based, Aplysia californica; conditions: inhibitor added to 2-d-cultured SN
apMAPK [6] = system: apMAPK
Description: Top, Left, Twenty-five micrograms of a pleural ganglia lysate collected at the indicated times after p5-p9 nerve crush were resolved by SDS-PAGE, and a Western blot was probed with Ab pTpYmapk to detect active ERK-MAPKs. […] All of the values were normalized to levels of total apMAPK. […] Each of the following experiments (B-E) was repeated twice at least, and representative results are shown. […] Left, Pleural neurons were removed from a noninjured animal, a lysate was prepared, and 25 μg was incubated with 100 ng of active apPKG protein or with 1 μM 8-Br-cGMP in the presence or absence of 10 μM U0126. Right, Twenty-five micrograms of axoplasm was incubated with active apPKG as above. Active apMAPK was detected by immunoblotting with Ab pTpYmapk.
ERK activity was assayed as described (Sung et al., 2001). Briefly, proteins and 500 μM ATP were incubated in kinase buffer for 20 min at room temperature. The reaction mixtures were resolved on 10% SDS polyacrylamide gels and subjected to Western blotting with antibody (Ab)pTpYmapk, AbpYmapk, AbpTmapk, or AbpElk1.

rats = conditions: intrathecal, 10 and 60 minutes later; cited from earlier work
Aplysia SNs [7] = conditions: SNs exposed to drug in vitro
Description: SNs were isolated from the pleural ganglia of 50-80 gm animals and were plated on poly-L-lysine-coated dishes containing L15 medium and 50% hemolymph (Dagan and Levitan, 1981; Glanzman etal., 1989). Cultures were maintained at 18° C. for up to 7 d. Medium was changed every 2 d. Drugs were washed out 1 hr before electrophysiological tests.

Molecule: 10″ deoxybalanol
- IC50 (PKG [1]): 31 nM

Molecule: 14″ decarboxy balanol
- IC50 (PKG [1]): 19 nM

Molecule: Nc1nc2c(nc(Sc3ccc(Cl)cc3)n2C2OC3COP(O)(=S)OC3C2O)c(=O)[nH]1 (single isomer, unassigned) [Rp-8-pCPT-cGMPS, guanosine 3′,5′-cyclic monophosphorothioate, 8-(4-chlorophenylthio)-, Rp isomer]
- kinase activity of purified inactive recombinant apPKG (apPKG; 10 μM inhibitor): inhibited
- decrease in spike threshold (Aplysia SNs [2]): prevented
- increase in repetitive firing (Aplysia SNs [2]): prevented
- decrease in spike threshold (Aplysia SNs [2]; listed as Rp-cGMPS): significantly prevented
- increase in repetitive firing (Aplysia SNs [2]; listed as Rp-cGMPS): significantly reduced
- reduction in the level of apMAPK in the nucleus of the SNs (apMAPK [3]): nearly threefold reduction
- nuclear staining of apMAPK (apMAPK [3]): dramatic reduction
- PKG activity in sciatic nerve segments (PKG [4]): abolished the activity
- appearance of excitability (Aplysia SNs [5]): Neither Rp-8-pCPT-cGMPS nor ODQ inhibited

Molecule: Nc1ncnc2c1ncn2[C@@H]1O[C@@H]2COP(O)(=S)O[C@H]2[C@H]1O (single isomer, unassigned) [Rp-cAMPS, adenosine 3′,5′-cyclic monophosphorothioate, Rp isomer]
- decrease in spike threshold (Aplysia SNs [2]): no significant effect; also recorded: not significant
- increase in repetitive firing (Aplysia SNs [2]): no significant effect
- nuclear staining of apMAPK (apMAPK [3]): same levels

Molecule: Nc1nc2c(nc(Br)n2[C@@H]2O[C@@H]3COP(=O)(O)O[C@H]3[C@H]2O)c(=O)[nH]1 [8-Br-cGMP]
- activation of inactive apPKG (apPKG): activated
- level of active apMAPK (apMAPK [6]; 1 μM 8-Br-cGMP added to 25 μg lysate): markedly enhanced

Molecule: COC(=O)[C@@H](N)CCCN=C(N)N[N+](=O)[O-].Cl [L-NAME, N^G-nitro-L-arginine methyl ester hydochioride]
- LTH (maximum firing relative to untreated controls) (Aplysia SNs [2]; 1 mM, SNs in vitro): reduced LTH

Molecule: NC(=S)NCCC[C@H](N)C(=O)O [L-Thiocitrulline, L-thiocitrulline]
- maximum firing relative to untreated controls (LTH) (Aplysia SNs [2]; 50 μM, SNs in vitro): markedly reduced

Molecule: O=c1onc2cnc3ccccc3n12 [ODQ, 1-H[1,2,4]oxadiazolo[4,3-a]quinoxalin-1-one]
- decrease in spike threshold (Aplysia SNs [2]): significantly prevented
- increase in repetitive firing (Aplysia SNs [2]): prevented; also recorded: significantly reduced
- appearance of excitability (Aplysia SNs [5]): Neither Rp-8-pCPT-cGMPS nor ODQ inhibited

Molecule: Nc1ncnc2c1nc(Sc1ccc(Cl)cc1)n2C1OC2COP(O)(=S)OC2C1O (stereo not drawn) [RP-A, Rp-8-pCPT-cAMPS]
- PKG activity in sciatic nerve segments (PKG [4]): did not change this pattern

Molecule: CCN(CC)CC.Nc1nc2c(nc(Sc3ccc(Cl)cc3)n2[C@@H]2O[C@@H]3COP(O)(=S)O[C@H]3[C@H]2O)c(=O)[nH]1 (stereo partly drawn) [Rp-8-[4-chlorophenyl)thio-cGMPS triethylamine]
- antinociception (rats): significant antinociception

Molecule: N#CC(=C(/N)Sc1ccccc1N)/C(C#N)=C(\N)Sc1ccccc1N [U0126]
- extent or pattern of neurite growth (Aplysia SNs [7]): severe growth defects
- block of apMAPK activation by active apPKG or 8-Br-cGMP (apMAPK [6]; 10 μM U0126): not blocked

Molecule: O=C(NC1CNCCCC1OC(=O)c1cc(O)c(C(=O)c2c(O)cccc2C(=O)O)c(O)c1)c1ccc(O)cc1 (stereo not drawn) [balanol]
- IC50 (PKG [1]): 1.6 nM

Molecule: balanol-7R
- IC50 (PKG [1]): 291 nM
